Read-outs that look alike come from different tables or passages of the source.
System: HEK293 cells
Assay: HEK293 VLCFA-LPC IC50 determination (13C-labeled C26:0 LPC by UHPLC/MS)
Assay type: cell-based, human
Conditions: average of one or more replicates, read-out: Average HEK293 IC50
Procedure, shortened: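 Suspension HEK293 cells (final 0.5 million/mL after mixing with equal volume) incubated 48 hours with compound plus 13C-acetate (1.0 mg/mL in added media), shaking at 37° C. Lipids extracted with hexane/isopropanol or methanol, C13:0 LPC standard. UHPLC/MS of 13C-labeled C26:0 LPC (638.500/104.100 m/z); IC50 by four-parameter fit.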

[1] = Homo sapiens, HEK293, HEK293 cells
[2] = Homo sapiens, HEK293, 48 h, 13C-labeled C26:0 LPC, 48 hours
[3] = 13C-labeled C26:0 LPC, 48 hours

Compound	IC50 [1] [nM]	further results
O=C(Nc1ccn(-c2ccc(OC(F)F)nc2)n1)C1(c2ccccc2F)CC1 [Compound 409, N-[1-[6-(difluoromethoxy)-3-pyridyl]pyrazol-3-yl]-1-(2-fluorophenyl)cyclopropanecarboxamide]	> 5000	
O=C(Nc1ccn(-c2ncncc2F)n1)C1(c2ccccc2F)CC1 [Compound 361, 1-(2-fluorophenyl)-N-[1-(5-fluoropyrimidin-4-yl)pyrazol-3-yl]cyclopropanecarboxamide]		IC50 [2]: 150 nM
Cc1ccc(C(C)C(=O)Nc2ccn(-c3ccccc3)n2)cc1 (stereo not drawn) [Compound 77, N-(1-phenylpyrazol-3-yl)-2-(p-tolyl)propanamide]	3300	
O=C(Nc1ccn(-c2ccnc(F)c2)n1)C1(c2cccnc2)CC1 [Compound 222, N-[1-(2-fluoro-4-pyridyl)pyrazol-3-yl]-1-(3-pyridyl)cyclopropanecarboxamide]	2000	
COc1cc(-n2ccc(NC(=O)C3(c4cnccn4)CC3)n2)ccn1 [Compound 491, N-[1-(2-methoxy-4-pyridyl)pyrazol-3-yl]-1-pyrazin-2-yl-cyclopropanecarboxamide]	> 5000	
O=C(Nc1ccn(-c2ccccc2)n1)C1(c2cccc(F)c2F)CC1 [Compound 269, 1-(2,3-difluorophenyl)-N-(1-phenylpyrazol-3-yl)cyclopropanecarboxamide]	98	
O=C(Cc1ccc(F)c(Cl)c1)Nc1ccn(-c2ccccc2)n1 [Compound 64, 2-(3-chloro-4-fluoro-phenyl)-N-(1-phenylpyrazol-3-yl)acetamide]	> 5000	
O=C(Cc1ccccc1F)Nc1ccn(-c2ccc(Cl)c(F)c2)n1 [Compound 195, N-[1-(4-chloro-3-fluoro-phenyl)pyrazol-3-yl]-2-(2-fluorophenyl)acetamide]	> 2000	
Cc1nnc(-n2ccc(NC(=O)C3(c4ccccc4F)CC3)n2)s1 [Compound 404, 1-(2-fluorophenyl)-N-[1-(5-methyl-1,3,4-thiadiazol-2-yl)pyrazol-3-yl]cyclopropanecarboxamide]		IC50 [2]: > 5000 nM
O=C(Nc1ccn(-c2cc(F)ncc2F)n1)C1(c2ccccc2)CC1 [Compound 115, N-[1-(2,5-difluoro-4-pyridyl)pyrazol-3-yl]-1-phenyl-cyclopropanecarboxamide]	120	
O=C(Cc1ccncc1)Nc1ccn(-c2ccccc2)n1 [Compound 38, N-(1-phenylpyrazol-3-yl)-2-(4-pyridyl)acetamide]	> 5000	
CC(C)Oc1cc(-n2ccc(NC(=O)C3(c4ccccc4F)CC3)n2)ccn1 [Compound 342, 1-(2-fluorophenyl)-N-[1-(2-isopropoxy-4-pyridyl)pyrazol-3-yl]cyclopropanecarboxamide]		IC50 [2]: > 5000 nM
CCOc1cc(-n2ccc(NC(=O)C3(c4ccccc4F)CC3)n2)ccn1 [Compound 449, N-[1-(2-ethoxy-4-pyridyl)pyrazol-3-yl]-1-(2-fluorophenyl)cyclopropanecarboxamide]	> 5000	
O=C(Nc1ccn(-c2ncccc2Cl)n1)C1(c2ncccc2F)CC1 [Compound 453]	> 5000	
COc1cc(-n2ccc(NC(=O)C3(c4ncccc4F)CC3(C)C)n2)ccn1 (stereo not drawn) [Compound 519, 1-(3-fluoro-2-pyridyl)-N-[1-(2-methoxy-4-pyridyl)pyrazol-3-yl]-2,2-dimethyl-cyclopropanecarboxamide]	> 2000	
COc1ccc(CC(=O)Nc2ccn(-c3ccccc3)n2)cc1 [Compound 45, 2-(4-methoxyphenyl)-N-(1-phenylpyrazol-3-yl)acetamide]	> 5000	
COc1cc(-n2ccc(NC(=O)C3(c4ncccn4)CC3)n2)ccn1 [Compound 407, N-[1-(2-methoxy-4-pyridyl)pyrazol-3-yl]-1-pyrimidin-2-yl-cyclopropanecarboxamide]	> 5000	
O=C(Nc1ccn(-c2cncc(F)c2)n1)[C@]1(c2ncccc2F)CC12CC2 (single isomer, unassigned) [Compound 499]		IC50 [2]: 740 nM
COc1ncc(-n2ccc(NC(=O)C3(c4ncccc4F)CC3)n2)cn1 [Compound 454, 1-(3-fluoro-2-pyridyl)-N-[1-(2-methoxypyrimidin-5-yl)pyrazol-3-yl]cyclopropanecarboxamide]	> 5000	
O=C(Nc1ccn(-c2ccnc(F)c2)n1)C1(c2ccccc2)CCCCC1 [Compound 148, N-[1-(2-fluoro-4-pyridyl)pyrazol-3-yl]-1-phenyl-cyclohexanecarboxamide]	> 5000	
O=C(Nc1ccn(-c2ccnc(F)c2)n1)[C@@]1(c2ccccc2)CC12CCCC2 [Compound 150, (2S)-N-[1-(2-fluoro-4-pyridyl)pyrazol-3-yl]-2-phenyl-spiro[2.4]heptane-2-carboxamide]	< 50	
O=C(Nc1ccn(-c2ccccc2F)n1)C1(c2ccccc2)CC1 [Compound 188, N-[1-(2-fluorophenyl)pyrazol-3-yl]-1-phenyl-cyclopropanecarboxamide]	140	
O=C(Nc1ccn(-c2ccnc(F)c2)n1)C(c1ccccc1)C1CCCC1 (stereo not drawn) [Compound 152, 2-cyclopentyl-N-[1-(2-fluoro-4-pyridyl)pyrazol-3-yl]-2-phenyl-acetamide]	1700	

Compound	IC50 [1] [nM]	further results
N#Cc1ccc(C2(C(=O)Nc3ccn(-c4ccccc4)n3)CC2)cc1 [Compound 227, 1-(4-cyanophenyl)-N-(1-phenylpyrazol-3-yl)cyclopropanecarboxamide]	290	
[2H]c1nc(C)nc([2H])c1-n1ccc(NC(=O)C2(c3ccccc3F)CC2)n1 [Compound 258, N-[1-(4,6-dideuterio-2-methyl-pyrimidin-5-yl)pyrazol-3-yl]-1-(2-fluorophenyl)cyclopropanecarboxamide]	> 5000	
Cc1cccc(CC(=O)Nc2ccn(-c3ccccc3)n2)c1 [Compound 43, 2-(m-tolyl)-N-(1-phenylpyrazol-3-yl)acetamide]	1900	
O=C(Nc1ccn(-c2ccncc2F)n1)C1(c2ccccc2)CC1 [Compound 138, N-(1-(3-fluoropyridin-4-yl)-1H-pyrazol-3-yl)-1-phenylcyclopropane-1-carboxamide]	55	
Cc1cc(NC(=O)C2(c3ncccc3F)CC23CC3)nn1-c1ccc(F)cc1F (stereo not drawn) [Compound 523, N-[1-(2,4-difluorophenyl)-5-methyl-pyrazol-3-yl]-2-(3-fluoro-2-pyridyl)spiro[2.2]pentane-2-carboxamide]	> 2000	
COc1ncc(-n2ccc(NC(=O)C3(c4ncccc4F)CC3)n2)cc1F [Compound 452, N-[1-(5-fluoro-6-methoxy-3-pyridyl)pyrazol-3-yl]-1-(3-fluoro-2-pyridyl)cyclopropanecarboxamide]	54	
COc1ncc(-n2ccc(NC(=O)C3(c4ccccc4F)CC3)n2)cn1 [Compound 338, 1-(2-fluorophenyl)-N-[1-(2-methoxylpyrimidin-5-yl)pyrazol-3-yl]cyclopropanecarboxamide]		IC50 [2]: > 5000 nM
O=C(Nc1ccn(-c2cncc(F)c2)n1)C1(c2ccccc2)CC1(F)F (single isomer, unassigned) [Compound 436]		IC50 [3]: 180 nM
O=C(Nc1ccn(-c2ccc(F)cc2)n1)C1(c2cccs2)CC1 [Compound 481, N-[1-(4-fluorophenyl)pyrazol-3-yl]-1-(2-thienyl)cyclopropanecarboxamide]	160	
O=C(Cc1ccccc1)Nc1ccn(-c2ccncc2)n1 [Compound 99, 2-phenyl-N-[1-(4-pyridyl)pyrazol-3-yl]acetamide]	760	
O=C(Cn1cccn1)Nc1ccn(-c2ccccc2)n1 [Compound 289, N-(1-phenylpyrazol-3-yl)-2-pyrazol-1-yl-acetamide]	> 5000	
CC1CC1(C(=O)Nc1ccn(-c2ccc(F)c(F)c2)n1)c1ncccc1F (stereo not drawn) [Compound 506, N-[1-(3,4-difluorophenyl)pyrazol-3-yl]-1-(3-fluoro-2-pyridyl)-2-methyl-cyclopropanecarboxamide]	220	
O=C(Cc1ccsc1)Nc1ccn(-c2ccnc(F)c2)n1 [Compound 293, N-[1-(2-fluoro-4-pyridyl)pyrazol-3-yl]-2-(3-thienyl)acetamide]	980	
CC(C)c1ccc(CC(=O)Nc2ccn(-c3ccccc3)n2)cc1 [Compound 10, 2-(4-isopropylphenyl)-N-(1-phenylpyrazol-3-yl)acetamide]	4400	
Cn1ccc(-n2ccc(NC(=O)Cc3ccccc3)n2)n1 [Compound 228, N-[1-(1-methylpyrazol-3-yl)pyrazol-3-yl]-2-phenyl-acetamide]	> 5000	
Cc1cc(-n2ccc(NC(=O)Cc3ccccc3)n2)ccn1 [Compound 109, N-[1-(2-methyl-4-pyridyl)pyrazol-3-yl]-2-phenyl-acetamide]	> 10000	
CCCC(C(=O)Nc1ccn(-c2ccnc(F)c2)n1)c1ccccc1 (stereo not drawn) [Compound 173, N-(1-(2-fluoropyridin-4-yl)-1H-pyrazol-3-yl)-2-phenylpentanamide]	72	
O=C(Nc1ccn(-c2cncc(F)c2)n1)C1(c2ccccc2)CC1(F)F (single isomer, unassigned) [Compound 435]		IC50 [3]: 60 nM
O=C(Cc1ccccc1)Nc1ccn(-c2cccc(Cl)c2)n1 [Compound 121, N-[1-(3-chlorophenyl)pyrazol-3-yl]-2-phenyl-acetamide]	650	
COc1ccc(-n2ccc(NC(=O)C3(c4ccccc4F)CC3)n2)cn1 [Compound 319, 1-(2-fluorophenyl)-N-(1-(6-methoxypyridin-3-yl)-1H-pyrazol-3-yl)cyclopropane-1-carboxamide]		IC50 [2]: 58 nM
O=C(Nc1ccn(-c2cncc(F)c2)n1)C1(c2cccc(OC(F)(F)F)c2)CC1 [Compound 465]	24	
O=C(Nc1ccn(-c2cccc(C(F)(F)F)c2)n1)C1(c2ccccc2)CC1 [Compound 159, 1-phenyl-N-[1-[3-(trifluoromethyl)phenyl]pyrazol-3-yl]cyclopropanecarboxamide]	> 5000	
